Test results published in patent US20250042911A1, “NOVEL BENZOPYRAN DERIVATIVE AND USE THEREOF” (SPARK BIOPHARMA, INC, priority 2021, published 2025).
pEC50: −log10 of the molar value. Counter-ions that a name gives are not always drawn.

System: melanoma cells (B316F10)
Test: Tumor growth inhibition in C57BL/6 syngeneic mouse model implanted with melanoma cells
Type: in vivo
Conditions: Mus musculus, po, 20 mg/kg orally once a day for 9 or 10 days; female C57BL/6 mice with implanted melanoma cells; tumor volume vs control group; read-out: TGI (%)
Protocol: The tumor growth inhibition effect of benzopyrene derivatives was evaluated in a C57BL/6 mouse tumor model (syngeneic mouse model) in which melanoma cells (B316F10) derived from C57BL/6 mice are implanted.
After the quarantine and acclimation period was over, a cell suspension prepared with 5×10^5 cells/0.1 mL PBS was filled into a disposable syringe and administered in an amount of 0.1 mL PBS/head subcutaneously to the right back of healthy test animals (female C57BL/6, 7 weeks old) for implantation. After cell line implantation, general symptoms were observed once daily during the engraftment and growth period. Animals with no abnormalities in their health and whose tumor volume reached 50 to 100 mm^3 when measured with a digital caliper were selected. Then, based on tumor volume and body weight, the groups were separated so that the average tumor volume per group was 70 to 100 mm^3. Ten (10) animals were separated per group, and 20 mg/kg of benzopyran derivatives were administered orally once a day for 9 or 10 days. Tumor volume was measured once every 2 or 3 days.
The measured tumor volume of the test compound administered groups was compared with that of the control group and is represented in Table 2 as the tumor growth inhibition (TGI, %).

Question: Which inhibition in vivo at 20 mg/kg does the source give for `COCCOCCOCCOCCOC(=O)Oc1ccc2c(c1)OC(C)(C)C1=CCn3c(=O)n(-c4ccc(C(C)=O)cc4)c(=O)n3C12` (centres unmarked) [Example 75, 2-(4-acetylphenyl)-7,7-dimethyl-1,3-dioxo-2,3,5,12b-tetrahydro-1H,7H-chromeno[4,3-c][1,2,4]triazolo[1,2-a]pyridazin-10-yl (2,5,8,11-tetraoxatridecan-13-yl) carbonate] here?
Answer: 25.5%

System: human M2 macrophages
Test: Inhibition of human M2 macrophage activity, hCCL22 in culture supernatant by ELISA
Type: cell-based
Conditions: Macrophage, hCCL22 inhibitory activity at 10 μM, 72 hours
Protocol: To obtain human M2 macrophages, human monocytes (THP-1 monocyte, CD4 expression) were stabilized in a 96-well plate for 24 hours and then incubated in culture media containing 100 ng/mL phorbal 12-myristate-13-acetate (PMA; Sigma, P8139) for 24 hours to differentiate into M0 macrophages (macrophage-like phenotype). It was confirmed that differentiated M0 macrophages had reduced CD4 expression and expressed CD11b. M0 macrophages in the plate well were washed once with culture media and incubated in culture media containing 25 ng/mL hIL-4 (Peprotech, 200-04-50) and 25 ng/mL hIL-13 (Peprotech, 200-13-50) for 72 hours to differentiate into M2-like macrophages. Test compounds were diluted by concentration in M2 differentiation media and treated simultaneously during a differentiation period of 72 hours. The inhibitory effect of the test compounds on M2 macrophages was determined by measuring hCCL22 in the medium culture supernatant cultured for 72 hours using an ELISA assay (R&D system, DMD00). The results of the activity measurements are represented in Table 3 (EC50), Table 4 ([…] inhibitory activity at 5 μM) and Table 5 (hCCL22 inhibitory activity at 10 μM).

Question: `CC(=O)c1ccc(-n2c(=O)n3n(c2=O)C2C(=CC3)C(C)(C)Oc3cc(N4CCOCC4)ccc32)cc1` (centres unmarked) [Example 8, 2-(4-acetylphenyl)-7,7-dimethyl-10-morpholino-5,12b-dihydro-1H,7H-chromeno[4,3-c][1,2,4]triazolo[1,2-a]pyridazine-1,3(2H)-dione] was tested. Which inhibition at 10 µM did it give?
Answer: 60.7%

Question: Which inhibition at 10 µM does the source give for `CC(=O)c1ccc(-n2c(=O)n3n(c2=O)C2C(=CC3)C(C)(C)Oc3cc(N4CCN(C(C)=O)CC4)ccc32)cc1` (centres unmarked) [Example 19, 2-(4-acetylphenyl)-10-(4-acetylpiperazin-1-yl)-7,7-dimethyl-5,12b-dihydro-1H,7H-chromeno[4,3-c][1,2,4]triazolo[1,2-a]pyridazine-1,3(2H)-dione] here?
Answer: 18.8%

Question: With `CC(=O)c1ccc(-n2c(=O)n3n(c2=O)C2C(=CC3)C(C)(C)Oc3c2cc(Br)c(O)c3Br)cc1` (centres unmarked) [Example 10, 2-(4-acetylphenyl)-9,11-dibromo-10-hydroxy-7,7-dimethyl-5,12b-dihydro-1H,7H-chromeno[4,3-c][1,2,4]triazolo[1,2-a]pyridazine-1,3(2H)-dione] as the molecule, how does the inhibition at 10 µM read?
Answer: 98.4%

Question: How did the inhibition at 10 µM turn out when `CCNc1ccc2c(c1)OC(C)(C)C1=CCn3c(=O)n(-c4ccc(C(C)=O)cc4)c(=O)n3C12` (centres unmarked) [Example 16, 2-(4-acetylphenyl)-10-(ethylamino)-7,7-dimethyl-5,12b-dihydro-1H,7H-chromeno[4,3-c][1,2,4]triazolo[1,2-a]pyridazine-1,3(2H)-dione] was run?
Answer: 79.9%

Question: `CC(=O)c1ccc(-n2c(=O)n3n(c2=O)C2C(=CC3)C(CF)(CF)Oc3cc(O)ccc32)cc1` (centres unmarked) [Example 2, 2-(4-acetylphenyl)-7,7-bis(fluoromethyl)-10-hydroxy-5,12b-dihydro-1H,7H-chromeno[4,3-c][1,2,4]triazolo[1,2-a]pyridazine-1,3(2H)-dione] was tested. Which inhibition at 10 µM did it give?
Answer: 64.4%

Question: `CC(=O)c1ccc(-n2c(=O)n3n(c2=O)C2C(=CC3)C(C)(C)Oc3cc(S(C)(=O)=O)ccc32)cc1` (centres unmarked) [Example 4, 2-(4-acetylphenyl)-7,7-dimethyl-10-(methylsulfonyl)-5,12b-dihydro-1H,7H-chromeno[4,3-c][1,2,4]triazolo[1,2-a]pyridazine-1,3(2H)-dione] was tested. Which inhibition at 10 µM did it give?
Answer: 51.9%

Same assay, conditions: Macrophage, hML22 inhibitory activity at 5 μM, 72 hours

Question: `CC(=O)c1ccc(-n2c(=O)n3n(c2=O)C2C(=CC3)C(C)(C)Oc3cc(O)c(OC(F)(F)F)cc32)cc1` (centres unmarked) [Example 25, 2-(4-acetylphenyl)-10-hydroxy-7,7-dimethyl-11-(trifluoromethoxy)-5,12b-dihydro-1H,7H-chromeno[4,3-c][1,2,4]triazolo[1,2-a]pyridazine-1,3(2H)-dione] was tested. Which inhibition at 5 µM did it give?
Answer: 42%

Same assay, conditions: hCCL22 secretion, THP-1 derived M2-like macrophages, compound present during 72 hours of differentiation

Question: With `CN1CCN(c2ccc3c(c2)OC(C)(C)C2=CCn4c(=O)n(-c5ccc(C(F)(F)F)cc5)c(=O)n4C23)CC1` (centres unmarked) [Example 49, 7,7-dimethyl-10-(4-methylpyrerazin-1-yl)-2-(4-(trifluoromethyl)phenyl)-5,12b-dihydro-1H,7H-chromeno[4,3-c][1,2,4]triazolo[1,2-a]pyridazine-1,3(2H)-dione] as the molecule, how does the pEC50 read?
Answer: 4.92

Question: How did the pEC50 turn out when `CC(=O)c1ccc(-n2c(=O)n3n(c2=O)C2C(=CC3)C(C)(C)Oc3cc(N(C(C)C)C(C)C)ccc32)cc1` (centres unmarked) [Example 47, 2-(4-acetylphenyl)-10-(diisopropylamino)-7,7-dimethyl-5,12b-dihydro-1H,7H-chromeno[4,3-c][1,2,4]triazolo[1,2-a]pyridazine-1,3(2H)-dione] was run?
Answer: 5.09

Question: How did the pEC50 turn out when `CC1(C)Oc2cc(OP(=O)(O)O)ccc2C2C1=CCn1c(=O)n(-c3ccc(C(C)(C)C)cc3)c(=O)n12` (centres unmarked) [Example 144, 2-(4-(tert-butyl)phenyl)-7,7-dimethyl-1,3-dioxo-2,3,5,12b-tetrahydro-1H,7H-chromeno[4,3-c][1,2,4]triazolo[1,2-a]pyridazin-10-yl dihydrogen phosphate] was run?
Answer: 5.27

Question: With `CC(=O)c1ccc(-n2c(=O)n3n(c2=O)C2C(=CC3)C(C)(C)Oc3cc(OCP(=O)(O)O)ccc32)cc1` (centres unmarked) [Example 115, disodium (((2-(4-acetylphenyl)-7,7-dimethyl-1,3-dioxo-2,3,5,12b-tetrahydro-1H,7H-chromeno[4,3-c][1,2,4]triazolo[1,2-a]pyridazin-10-yl)oxy)methyl)phosphonate] as the molecule, how does the pEC50 read?
Answer: < 4.10

Question: How did the pEC50 turn out when `CC(=O)c1ccc(-n2c(=O)n3n(c2=O)C2C(=CC3)C(C)(C)Oc3cc(OC(=O)N4CCNCC4)ccc32)cc1` (centres unmarked) [Example 67, 2-(4-acetylphenyl)-7,7-dimethyl-1,3-dioxo-2,3,5,12b-tetrahydro-1H,7H-chromeno[4,3-c][1,2,4]triazolo[1,2-a]pyridazin-10-yl piperazine-1-carboxylate hydrochloride] was run?
Answer: 4.76

Question: With `CC(=O)c1ccc(-n2c(=O)n3n(c2=O)C2C(=CC3)C(C)(C)Oc3cc(OC(=O)N4C(C)CN(C(=O)[C@@H]5CCCN5)CC4C)ccc32)cc1` (some centres unmarked) [Example 101, 2-(4-acetylphenyl)-7,7-dimethyl-1,3-dioxo-2,3,5,12b-tetrahydro-1H,7H-chromeno[4,3-c][1,2,4]triazolo[1,2-a]pyridazin-10-yl 2,6-dimethyl-4-prolylpiperazine-1-carboxylate hydrochloride] as the molecule, how does the pEC50 read?
Answer: 4.75

Question: How did the pEC50 turn out when `CC(=O)c1ccc(-n2c(=O)n3n(c2=O)C2C(=CC3)C(C)(C)Oc3cc(-c4cccnc4)ccc32)cc1` (centres unmarked) [Example 42, 2-(4-acetylphenyl)-7,7-dimethyl-10-(pyridin-3-yl)-5,12b-dihydro-1H,7H-chromeno[4,3-c][1,2,4]triazolo[1,2-a]pyridazine-1,3(2H)-dione] was run?
Answer: 4.51

Question: How did the pEC50 turn out when `CC(=O)c1ccc(-n2c(=O)n3n(c2=O)C2C(=CC3)C(C)(C)Oc3cc(OC(=O)N[C@@H](CCCNC(=N)N)C(=O)O)ccc32)cc1` (stereo partly drawn) [Example 78, (((2-(4-acetylphenyl)-7,7-dimethyl-1,3-dioxo-2,3,5,12b-tetrahydro-1H,7H-chromeno[4,3-c][1,2,4]triazolo[1,2-a]pyridazin-10-yl)oxy)carbonyl)-L-arginine 2,2,2-trifluoroacetic acid] was run?
Answer: 5.28

Question: `CC(=O)c1ccc(-n2c(=O)n3n(c2=O)C2C(=CC3)C(C)(C)Oc3c2cc(Cl)c(NC(C)C)c3Cl)cc1` (centres unmarked) [Example 37, 2-(4-acetylphenyl)-9,11-dichloro-10-(isopropylamino)-7,7-dimethyl-5,12b-dihydro-1H,7H-chromeno[4,3-c][1,2,4]triazolo[1,2-a]pyridazine-1,3(2H)-dione] was tested. Which pEC50 did it give?
Answer: 4.83

Question: `CN(C)C(=O)Oc1ccc2c(c1)OC(C)(C)C1=CCn3c(=O)n(-c4ccc(F)cc4)c(=O)n3C12` (centres unmarked) [Example 146, 2-(4-fluorophenyl)-7,7-dimethyl-1,3-dioxo-2,3,5,12b-tetrahydro-1H,7H-chromeno[4,3-c][1,2,4]triazolo[1,2-a]pyridazin-10-yl dimethylcarbamate] was tested. Which pEC50 did it give?
Answer: < 4.10

Question: With `CC(=O)c1ccc(-n2c(=O)n3n(c2=O)C2C(=CC3)C(C)(C)Oc3cc(N(C)C(C)C)ccc32)cc1` (centres unmarked) [Example 45, 2-(4-acetylphenyl)-10-(isopropyl(methyl)amino)-7,7-dimethyl-5,12b-dihydro-1H,7H-chromeno[4,3-c][1,2,4]triazolo[1,2-a]pyridazine-1,3(2H)-dione] as the molecule, how does the pEC50 read?
Answer: 5.04

Question: With `CCNc1ccc2c(c1)OC(C)(C)C1=CCn3c(=O)n(-c4ccc(C(C)=O)cc4)c(=O)n3C12` (centres unmarked) [Example 16, 2-(4-acetylphenyl)-10-(ethylamino)-7,7-dimethyl-5,12b-dihydro-1H,7H-chromeno[4,3-c][1,2,4]triazolo[1,2-a]pyridazine-1,3(2H)-dione] as the molecule, how does the pEC50 read?
Answer: 5.40

Question: With `CC(=O)c1ccc(-n2c(=O)n3n(c2=O)C2C(=CC3)C(C)(C)Oc3cc(OC(=O)C(C)(C)C)ccc32)cc1` (centres unmarked) [Example 58, 2-(4-acetylphenyl)-7,7-dimethyl-1,3-dioxo-2,3,5,12b-tetrahydro-1H,7H-chromeno[4,3-c][1,2,4]triazolo[1,2-a]pyridazin-10-yl pivalate] as the molecule, how does the pEC50 read?
Answer: 4.23

Question: How did the pEC50 turn out when `CC1(C)Oc2cc(O)ccc2C2C1=CCn1c(=O)n(-c3ccc(C(=O)N4CCOCC4)cc3)c(=O)n12` (centres unmarked) [Example 53, 10-hydroxy-7,7-dimethyl-2-(4-(morpholine-4-carbonyl)phenyl)-5,12b-dihydro-1H,7H-chromeno[4,3-c][1,2,4]triazolo[1,2-a]pyridazine-1,3(2H)-dione] was run?
Answer: 5.35

Question: How did the pEC50 turn out when `CC(=O)c1ccc(-n2c(=O)n3n(c2=O)C2C(=CC3)C(C)(C)Oc3cc(OC(=O)N4CCN(C(=O)CN(C)C)CC4(C)C)ccc32)cc1` (centres unmarked) [Example 119, 2-(4-acetylphenyl)-7,7-dimethyl-1,3-dioxo-2,3,5,12b-tetrahydro-1H,7H-chromeno[4,3-c][1,2,4]triazolo[1,2-a]pyridazin-10-yl 4-(dimethylglycyl)-2,2-dimethylpiperazine-1-carboxylate hydrochloride] was run?
Answer: 5.02
